Source: patent US11203613B2, “Peptidomimetic proteasome inhibitors” (CORNELL UNIVERSITY, priority 2017, dated 2021)
Where “and” joins values, the source holds several entries; their conditions need not be identical. Equal values may be shown once. Read-outs that look alike come from different tables or passages of the source.

Legend:
[1] = target: Human Constitutive (Hu C-20S) β5 Active Subunit (Homo sapiens, UniProt P28074); test: IC50 determination, human constitutive 20S proteasome β5c (suc-LLVY-AMC hydrolysis); type: biochemical; details: Table 2; several values in a cell are repeat determinations; read-out: Hu c-20S IC50
[2] = target: Mtb20SOG (Mycobacterium tuberculosis, UniProt P9WHT9); test: biochemical
[3] = Table 2, several values in a cell are repeat determinations

Sequence of Mtb20SOG (P9WHT9 58-291): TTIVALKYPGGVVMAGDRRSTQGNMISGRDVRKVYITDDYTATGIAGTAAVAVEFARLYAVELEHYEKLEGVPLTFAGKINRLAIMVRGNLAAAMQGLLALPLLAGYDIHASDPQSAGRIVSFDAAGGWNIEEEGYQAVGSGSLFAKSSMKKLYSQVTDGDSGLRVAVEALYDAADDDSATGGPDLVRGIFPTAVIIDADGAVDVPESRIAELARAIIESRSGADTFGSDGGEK

Row | Structure (SMILES) | IC50 [1] | IC50 [2, 3] | IC50 [2]
1 | CC(C)CCC(=O)N[C@@H](CC(=O)N1CCCCC1C(C)C)C(=O)N[C@@H](C)c1ncc(-c2ccc(F)cc2F)[nH]1 (some centres unmarked) [CF-503218] | 3.18 µM | 136 nM and 168 nM | –
2 | CC[C@H]1CCCCN1C(=O)C[C@H](NC(=O)N1CCOCC1)C(=O)N[C@@H](C)c1nc2c(F)cccc2[nH]1 [CF-503453] | 4.45 µM | 4690 nM | –
3 | C[C@H](NC(=O)[C@H](CC(=O)N1CCC[C@@H]1c1ccccc1)NC(=O)CC1CC1)c1ncc(Cc2ccccc2)[nH]1 [CF-503137] | 12.6 µM and 10.6 µM | – | 78 nM and 64 nM
4 | CC(C)CCC(=O)N[C@@H](CC(=O)N1CCCC[C@H]1C)C(=O)N[C@@H](C)c1nc(-c2ccc(F)cc2F)c[nH]1 [CF-503199] | 10.5 µM | – | 1000 nM
5 | CCN(CC)C(=O)C[C@H](NC(=O)CCC(C)C)C(=O)N[C@@H](C)c1nc(-c2ccc(F)cc2F)c[nH]1 [CF-503197] | 7.28 µM | – | 1110 nM
6 | C[C@H]1CCCCN1C(=O)C[C@H](NC(=O)CCC(C)(C)C)C(=O)NCc1nc2ccccc2[nH]1 [CF-503191] | 10.3 µM | – | 456 nM
7 | CC(C)CCC(=O)N[C@@H](CC(=O)N1CCCC[C@@H]1C)C(=O)N[C@H](C)c1nc2ccccc2[nH]1 [CF-503192] | 15.6 µM | 4900 nM | –
8 | CC[C@H]1CCCCN1C(=O)C[C@H](NC(=O)CCN(C)C)C(=O)N[C@@H](C)c1nc2c(F)cccc2[nH]1 [CF-503356] | 6.4 µM | – | 6400 nM
9 | CC(C)CCC(=O)N[C@@H](CC(=O)N1CCCC[C@@H]1C)C(=O)N[C@@H](C)c1nc2ccccc2[nH]1 [CF-503149] | 18.9 µM and 23.5 µM | 136 nM and 118 nM | –
10 | CC(C)CCC(=O)N[C@@H](CC(=O)N1CCCC[C@@H]1C)C(=O)N[C@@H](C)c1ncc(-c2ccc(F)cc2F)[nH]1 [CF-503198] | 7.25 µM | 1570 nM | –
11 | CC[C@H]1CCCCN1C(=O)C[C@H](NC(=O)N(C)Cc1ccccc1)C(=O)N[C@@H](C)c1nc2c(F)cccc2[nH]1 [CF-503451] | 3.33 µM and 3.7 µM | – | 176 nM and 184 nM
12 | C[C@H](NC(=O)[C@H](CC(=O)N1CCCC[C@@H]1C)NC(=O)CC1CCOCC1)c1ncc(Cc2ccccc2)[nH]1 [CF-503135] | 9.12 µM and 13.5 µM | 450 nM and 386 nM | –
13 | CC(C)CCC(=O)N[C@@H](CC(=O)N1CCCC[C@@H]1C)C(=O)N[C@@H](C)c1nc2c(F)cccc2[nH]1 [CF-503225] | 16.2 µM and 16.9 µM | 97 nM and 118 nM | –
14 | CC[C@H]1CCCCN1C(=O)C[C@H](NC(=O)OCc1ccccc1)C(=O)N[C@@H](C)c1nc2c(F)cccc2[nH]1 [CF-503461] | 5.8 µM and 8.2 µM | 68 nM and 75 nM | –
15 | Cc1cc(C(=O)N[C@@H](CC(=O)N2CCCC[C@@H]2C)C(=O)NC(C)c2nc3ccccc3[nH]2)no1 (some centres unmarked) [drawing 395] | 71.6 µM | 549 nM and 331 nM | –
16 | CCS(=O)(=O)N[C@@H](CC(=O)N1CCCC[C@@H]1C)C(=O)N[C@@H](C)c1ncc(-c2ccc(F)cc2F)[nH]1 [CF-503144] | 28.2 µM | 1900 nM | –
17 | C[C@H](NC(=O)[C@H](CC(=O)N1CCCC[C@@H]1C)NS(=O)(=O)Cc1ccccc1)c1ncc(-c2ccc(F)cc2F)[nH]1 [CF-503140] | 6.13 µM | 379 nM | –
18 | CC(C)CCS(=O)(=O)N[C@@H](CC(=O)N1CCCC[C@@H]1C)C(=O)N[C@@H](C)c1ncc(-c2ccc(F)cc2F)[nH]1 [CF-503157] | 7.5 µM and 9.66 µM | 1070 nM and 691 nM | –
19 | C[C@H](NC(=O)N(CC(=O)N1CCCC[C@@H]1C)NC(=O)CCC(C)(C)C)c1ncc(-c2ccc(F)cc2F)[nH]1 [CF-503189] | 7.61 µM and 10.2 µM | 7380 nM and 8040 nM | –
20 | Cc1cc(C(=O)N[C@@H](CC(=O)N2CCCC2)C(=O)N[C@@H](C)c2nc(-c3ccc(F)cc3F)c[nH]2)no1 [CF-503161] | 16.7 µM | – | 3340 nM
21 | CC(C)C(=O)CN[C@@H](CC(=O)N1CCCC[C@@H]1C)C(=O)N[C@@H](C)c1ncc(-c2ccc(F)cc2F)[nH]1 [CF-503151] | 9.9 µM | – | 11400 nM
22 | CC[C@H]1CCCCN1C(=O)C[C@H](Nc1nc(C(C)C)no1)C(=O)NCc1nc2c(F)cccc2[nH]1 [CF-503417] | 3.6 µM and 2.99 µM | 1350 nM and 1770 nM | –

Row | Structure (SMILES) | IC50 [1] | IC50 [2, 3] | IC50 [2]
23 | Cc1cc(C(=O)N[C@@H](CC(=O)N2CCCC[C@@H]2C)C(=O)N[C@@H](C)c2ncc(Cc3ccccc3)[nH]2)no1 [CF-503133] | 5.59 µM and 7.08 µM | 266 nM and 231 nM | –
24 | Cc1cc(C(=O)NC(CC(=O)N2CCCCC2C)C(=O)NC(C)c2ncc(-c3ccccc3)[nH]2)no1 (mixture of isomers) [CF-503094] | 12 µM and 11 µM | – | 471 nM and 726 nM
25 | CC[C@H]1CCCCN1C(=O)C[C@H](Nc1nc2ccccc2o1)C(=O)N[C@@H](C)c1nc2c(F)cccc2[nH]1 [CF-503321] | 4.5 µM and 5.2 µM | 271 nM and 374 nM | –
26 | C[C@H](NC(=O)[C@H](CC(=O)N1CCCC[C@@H]1C)NC(=O)CC1CCOCC1)c1ncc(-c2ccc(F)cc2F)[nH]1 [CF-503139] | 12.8 µM and 10.3 µM | – | 89 nM and 148 nM
27 | CC[C@H]1CCCCN1C(=O)C[C@H](NC(=O)N1CCCCC1)C(=O)N[C@@H](C)c1nc2c(F)cccc2[nH]1 [CF-503454] | 3 µM | 765 nM | –
28 | CC(C)c1noc(N[C@@H](CC(=O)N2CCCC[C@@H]2C)C(=O)N[C@@H](C)c2ncc(-c3ccc(F)cc3F)[nH]2)n1 [CF-503477] | 2.29 µM | 2050 nM | –
29 | Cc1ccc(S(=O)(=O)N[C@@H](CC(=O)N2CCCC[C@@H]2C)C(=O)N[C@@H](C)c2ncc(-c3ccc(F)cc3F)[nH]2)cc1 [CF-503143] | 6.47 µM | – | 494 nM
30 | CC[C@H]1CCCCN1C(=O)C[C@H](NC(=O)C1CC(C)(C)C1)C(=O)N[C@@H](C)c1nc2c(F)cccc2[nH]1 [CF-503464] | 1.26 µM | – | 10 nM and 19 nM
31 | Cc1cc(C(=O)N[C@@H](CC(=O)N2CCCC[C@@H]2C)C(=O)N[C@@H](C)c2ncc(-c3ccc(F)cc3)[nH]2)no1 [CF-503105] | > 18 µM and 19 µM | – | 259 nM and 256 nM
32 | Cc1cc(C(=O)N[C@@H](CC(=O)N2CCC[C@@H]2c2ccccc2)C(=O)N[C@@H](C)c2ncc(Cc3ccccc3)[nH]2)no1 [CF-503134] | 7.4 µM and 7.6 µM | – | 90 nM and 57 nM
33 | CC(C)COC(=O)NC(CC(=O)N1CCCCC1C)C(=O)NC(C)c1nc2c(F)cccc2[nH]1 (centres unmarked) [CF-503463] | 2.5 µM | – | 1140 nM
34 | C[C@H](NC(=O)[C@H](CC(=O)N1CCCC[C@@H]1C)NC(=O)C1CCC1)c1ncc(-c2ccc(F)cc2F)[nH]1 [CF-503146] | 2.41 µM | – | 163 nM
35 | CC[C@H]1CCCCN1C(=O)C[C@H](NC(=O)N(C)CC(C)C)C(=O)N[C@@H](C)c1nc2c(F)cccc2[nH]1 [CF-503457] | 5.03 µM | 2360 nM | –
36 | CCC1CCCCN1C(=O)CC(NC(=O)C1CC1c1ccccc1)C(=O)NC(C)c1nc2c(F)cccc2[nH]1 (centres unmarked) | 8.14 µM | – | 51 nM
37 | C[C@H](NC(=O)[C@H](CC(=O)N1CCCC[C@@H]1C)NC(=O)CC1CC1)c1ncc(Cc2ccccc2)[nH]1 [CF-503136] | 10.4 µM | 925 nM | –
38 | C[C@H](NC(=O)[C@H](CC(=O)N1CCCC[C@@H]1C)NC(=O)CC1CC1)c1ncc(-c2ccc(F)cc2F)[nH]1 [CF-503138] | 11.8 µM and 10.5 µM | 169 nM and 85 nM | –
39 | CC[C@H]1CCCCN1C(=O)C[C@H](Nc1nc2ccccc2s1)C(=O)N[C@@H](C)c1nc2c(F)cccc2[nH]1 [CF-503445] | 1.19 µM | 1180 nM | –
40 | C[C@H](NC(=O)[C@H](CC(=O)N1CCCC1)NC(=O)CCC(C)(C)C)c1ncc(-c2ccc(F)cc2F)[nH]1 [CF-503160] | 10.3 µM | 796 nM | –
41 | C[C@H](NC(=O)[C@H](CC(=O)N1CCC[C@@H]1c1ccccc1)NC(=O)CCC(C)(C)C)c1nc2ccccc2[nH]1 [CF-503156] | 16.6 µM | 88 nM | –
42 | C[C@H](NC(=O)[C@H](CC(=O)N1CCCC[C@@H]1C)NC(=O)CCC(C)(C)C)c1nc2c(F)cccc2[nH]1 [CF-503227] | 4.83 µM and 6.49 µM | 79 nM and 81 nM | –
43 | C[C@H](NC(=O)[C@H](CC(=O)N1CCCC[C@@H]1C)NC(=O)CCC(C)(C)C)c1ncc(-c2ccc(F)cc2F)[nH]1 [CF-503158] | 5.3 µM and 8.5 µM | 27 nM and 22 nM | –
